Measured values from patent US20230278972A1, “SUBSTITUTED HALOALKYL SULFONANILIDE HERBICIDES” (FMC Corporation, priority 2020, published 2023).

Legend:
Assay type in all cases: in vivo
[1] = test system: barnyardgrass (Echinochloa crus-galli); experiment: Test A preemergence, barnyardgrass; details: Preemergence; for Plant response rating, Barnyardgrass: 0 to 100 scale (0 no effect, 100 complete control)
In short: (§1)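 Test chemicals, formulated in a non-phytotoxic solvent mixture with surfactant, were sprayed postemergence on plants 2 to 10 cm tall at the one- to two-leaf stage. Preemergence treatment was a directed soil spray onto freshly seeded pots. Both used a loam soil and sand blend.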

kochia (Bassia scoparia) [2] = experiment: Test A preemergence, kochia; details: Preemergence; for Plant response rating, Kochia: 0 to 100 scale (0 no effect, 100 complete control)
In short: as §1

[3] = test system: ragweed (common ragweed, Ambrosia artemisiifolia); experiment: Test A preemergence, ragweed; details: Preemergence; for Plant response rating, Ragweed: 0 to 100 scale (0 no effect, 100 complete control)
In short: as §1

[4] = test system: Ryegrass, Italian (Italian ryegrass, Lolium multiflorum); experiment: Test A preemergence, Ryegrass, Italian; details: Preemergence; for Plant response rating, Ryegrass, Italian: 0 to 100 scale (0 no effect, 100 complete control)
In short: as §1

[5] = test system: Foxtail, Giant (giant foxtail, Setaria faberi); experiment: Test A preemergence, Foxtail, Giant; details: Preemergence; for Plant response rating, Foxtail, Giant: 0 to 100 scale (0 no effect, 100 complete control)
In short: as §1

[6] = test system: pigweed (Amaranthus retroflexus); experiment: Test A preemergence, pigweed; details: for Plant response rating, Pigweed: 0 to 100 scale (0 no effect, 100 complete control)
In short: (§2)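 Postemergence ratings come from foliar sprays onto one- to two-leaf plants of 2 to 10 cm grown in loam/sand; preemergence ratings come from a directed spray onto the soil of newly seeded pots. Formulation was a surfactant-containing non-phytotoxic solvent blend.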

[7] = test system: barnyardgrass (Echinochloa crus-galli); experiment: Test A postemergence, barnyardgrass; details: Postemergence, 0 to 100 scale (0 no effect, 100 complete control); for Plant response rating, Barnyardgrass: 125 g ai/ha; for Barnyardgrass plant response rating: 500 g ai/ha, visual injury vs untreated controls after approx. 10 days
In short: as §2

kochia (Bassia scoparia) [8] = experiment: Test A postemergence, kochia; details: Postemergence, 0 to 100 scale (0 no effect, 100 complete control); for Plant response rating, Kochia: 125 g ai/ha; for Kochia plant response rating: 500 g ai/ha, visual injury vs untreated controls after approx. 10 days
In short: as §1

[9] = test system: ragweed (common ragweed, Ambrosia artemisiifolia); experiment: Test A postemergence, ragweed; details: Postemergence, 0 to 100 scale (0 no effect, 100 complete control); for Plant response rating, Ragweed: 125 g ai/ha; for Ragweed plant response rating: 500 g ai/ha, visual injury vs untreated controls after approx. 10 days
In short: as §1

[10] = test system: Ryegrass, Italian (Italian ryegrass, Lolium multiflorum); experiment: Test A postemergence, Ryegrass, Italian; details: Postemergence, 0 to 100 scale (0 no effect, 100 complete control); for Plant response rating, Ryegrass, Italian: 125 g ai/ha; for Ryegrass, Italian plant response rating: 500 g ai/ha, visual injury vs untreated controls after approx. 10 days
In short: as §1

[11] = test system: Foxtail, Giant (giant foxtail, Setaria faberi); experiment: Test A postemergence, Foxtail, Giant; details: Postemergence, 0 to 100 scale (0 no effect, 100 complete control); for Plant response rating, Foxtail, Giant: 125 g ai/ha; for Foxtail, Giant plant response rating: 500 g ai/ha, visual injury vs untreated controls after approx. 10 days
In short: as §1

[12] = test system: pigweed (Amaranthus retroflexus); experiment: Test A postemergence, pigweed; details: Postemergence, 0 to 100 scale (0 no effect, 100 complete control); for Plant response rating, Pigweed: 125 g ai/ha; for Pigweed plant response rating: 500 g ai/ha, visual injury vs untreated controls after approx. 10 days
In short: as §1

[13] = test system: wheat (Triticum aestivum); experiment: Test A postemergence, wheat; details: Postemergence, 0 to 100 scale (0 no effect, 100 complete control); for Plant response rating, Wheat: 125 g ai/ha; for Wheat plant response rating: 500 g ai/ha, visual injury vs untreated controls after approx. 10 days
In short: as §2

corn (Zea mays) = experiment: Test A postemergence, corn; details: Postemergence, 0 to 100 scale (0 no effect, 100 complete control); for Plant response rating, Corn: 125 g ai/ha; for Corn plant response rating: 500 g ai/ha, visual injury vs untreated controls after approx. 10 days
In short: as §1

[14] = test system: blackgrass (Alopecurus myosuroides); experiment: Test A postemergence, blackgrass; details: Postemergence, 0 to 100 scale (0 no effect, 100 complete control); for Plant response rating, Blackgrass: 125 g ai/ha; for Blackgrass plant response rating: 500 g ai/ha, visual injury vs untreated controls after approx. 10 days
In short: as §1

[15] = test system: galium (catchweed bedstraw, Galium aparine); experiment: Test A postemergence, galium; details: Postemergence, 0 to 100 scale (0 no effect, 100 complete control); for Plant response rating, Galium: 125 g ai/ha; for Galium plant response rating: 500 g ai/ha, visual injury vs untreated controls after approx. 10 days
In short: as §2

[16] = 125 g ai/ha, visual injury on 0 to 100 scale (0 no effect, 100 complete control), approximately 10 days
[17] = 125 g ai/ha, visual injury, approx. 10 days

Compound	Plant response rating, Barnyardgrass ([1]; 500 g ai/ha)	Plant response rating, Kochia (kochia (Bassia scoparia) [2]; 500 g ai/ha)	Plant response rating, Ragweed ([3]; 500 g ai/ha)	Plant response rating, Ryegrass, Italian ([4]; 500 g ai/ha)	Plant response rating, Foxtail, Giant ([5]; 500 g ai/ha)	Plant response rating, Pigweed ([6]; 500 g ai/ha)	Barnyardgrass plant response rating [7]	Kochia plant response rating (kochia (Bassia scoparia) [8])	Ragweed plant response rating [9]	Ryegrass, Italian plant response rating [10]	Foxtail, Giant plant response rating [11]	Pigweed plant response rating [12]	Wheat plant response rating [13]	Corn plant response rating (corn (Zea mays))	Blackgrass plant response rating [14]	Galium plant response rating [15]	further results
Cc1cc(C)c(-c2ccnn(CC(F)(F)F)c2=O)cc1NS(=O)(=O)C(F)(F)F [Compound 57]	100	60	70	90	100	80	90	20	30	90	90	50	70	80	70	90	Barnyardgrass plant response rating [1, 16]: 100; Kochia plant response rating (kochia (Bassia scoparia) [2]; [16]): 60; Ragweed plant response rating [3, 16]: 40; Ryegrass, Italian plant response rating [4, 16]: 90; Foxtail, Giant plant response rating [5, 16]: 100; Pigweed plant response rating [6, 16]: 50; Plant response rating, Barnyardgrass ([7]; visual injury approx. 10 days): 40; Plant response rating, Kochia (kochia (Bassia scoparia) [8]; visual injury approx. 10 days): 0; Plant response rating, Ragweed ([9]; visual injury approx. 10 days): 0; Plant response rating, Ryegrass, Italian ([10]; visual injury approx. 10 days): 30; Plant response rating, Foxtail, Giant ([11]; visual injury approx. 10 days): 30; Plant response rating, Pigweed ([12]; visual injury approx. 10 days): 0; Plant response rating, Wheat ([13]; visual injury approx. 10 days): 60; Plant response rating, Corn (corn (Zea mays); visual injury approx. 10 days): 30; Plant response rating, Blackgrass ([14]; visual injury approx. 10 days): 0; Plant response rating, Galium ([15]; visual injury approx. 10 days): 80
CSC(=O)N(c1cc(C2=NOC3(CCCC3)C2)c(C)cc1C)S(=O)(=O)C(F)(F)F [Compound 219]	100	40	0	60	90	60	70	60	50	50	20	70	0	0	0	70	Plant response rating, Barnyardgrass [1, 17]: 0; Plant response rating, Kochia (kochia (Bassia scoparia) [2]; [17]): 20; Plant response rating, Ragweed [3, 17]: 0; Plant response rating, Ryegrass, Italian [4, 17]: 50; Plant response rating, Foxtail, Giant [5, 17]: 50; Plant response rating, Pigweed [6, 17]: 40; Plant response rating, Barnyardgrass [7]: 0; Plant response rating, Kochia (kochia (Bassia scoparia) [8]): 30; Plant response rating, Ragweed [9]: 20; Plant response rating, Ryegrass, Italian [10]: 20; Plant response rating, Foxtail, Giant [11]: 0; Plant response rating, Pigweed [12]: 40; Plant response rating, Wheat [13]: 0; Plant response rating, Corn (corn (Zea mays)): 0; Plant response rating, Blackgrass [14]: 0; Plant response rating, Galium [15]: 50
